Results: the NIST ThermoML archive (doi:10.1016/j.jct.2012.01.008)
Numbers after ± are expanded uncertainties.

Conditions: Liquid, Vibrating tube method

CCC[N+]1(C)CCCCC1.O=S(=O)([N-]S(=O)(=O)C(F)(F)F)C(F)(F)F
mass density (298.15 K, 100 kPa): 1408.9 ± 0.6 kg/m3 | mass density (298.15 K, 10000 kPa): 1415.4 ± 0.8 kg/m3 | mass density (298.15 K, 15000 kPa): 1418.7 ± 0.8 kg/m3 | mass density (298.15 K, 20000 kPa): 1421.9 ± 0.9 kg/m3 | mass density (298.15 K, 25000 kPa): 1424.8 ± 1 kg/m3 | mass density (298.15 K, 30000 kPa): 1427.7 ± 1.1 kg/m3 | mass density (298.15 K, 35000 kPa): 1430.4 ± 1.2 kg/m3 | mass density (298.15 K, 40000 kPa): 1433.2 ± 1.3 kg/m3 | mass density (298.15 K, 45000 kPa): 1436.1 ± 1.4 kg/m3 | mass density (298.15 K, 50000 kPa): 1438.8 ± 1.5 kg/m3 | mass density (318.15 K, 100 kPa): 1392.1 ± 0.6 kg/m3 | mass density (318.15 K, 10000 kPa): 1398.9 ± 0.7 kg/m3 | mass density (318.15 K, 15000 kPa): 1402.4 ± 0.8 kg/m3 | mass density (318.15 K, 20000 kPa): 1405.4 ± 0.9 kg/m3 | mass density (318.15 K, 25000 kPa): 1408.6 ± 1 kg/m3 | mass density (318.15 K, 30000 kPa): 1411.8 ± 1.1 kg/m3 | mass density (318.15 K, 35000 kPa): 1414.7 ± 1.2 kg/m3 | mass density (318.15 K, 40000 kPa): 1417.6 ± 1.2 kg/m3 | mass density (318.15 K, 45000 kPa): 1420.5 ± 1.3 kg/m3 | mass density (318.15 K, 50000 kPa): 1423.3 ± 1.4 kg/m3 | mass density (348.15 K, 100 kPa): 1366.3 ± 0.6 kg/m3 | mass density (348.15 K, 10000 kPa): 1373.5 ± 0.7 kg/m3 | mass density (348.15 K, 15000 kPa): 1377.2 ± 0.8 kg/m3 | mass density (348.15 K, 20000 kPa): 1380.8 ± 0.9 kg/m3 | mass density (348.15 K, 25000 kPa): 1384.1 ± 0.9 kg/m3 | mass density (348.15 K, 30000 kPa): 1387.6 ± 1 kg/m3 | mass density (348.15 K, 35000 kPa): 1390.7 ± 1.1 kg/m3 | mass density (348.15 K, 40000 kPa): 1393.8 ± 1.2 kg/m3 | mass density (348.15 K, 45000 kPa): 1397 ± 1.3 kg/m3 | mass density (348.15 K, 50000 kPa): 1399.9 ± 1.4 kg/m3

CC(=O)c1ccccc1 [acetophenone]
mass density (298.15 K, 100 kPa): 1023.4 ± 0.3 kg/m3 | mass density (298.15 K, 10000 kPa): 1029 ± 0.3 kg/m3 | mass density (298.15 K, 15000 kPa): 1031.7 ± 0.3 kg/m3 | mass density (298.15 K, 20000 kPa): 1034.3 ± 0.3 kg/m3 | mass density (298.15 K, 25000 kPa): 1036.8 ± 0.3 kg/m3 | mass density (298.15 K, 30000 kPa): 1039.3 ± 0.4 kg/m3 | mass density (298.15 K, 35000 kPa): 1041.8 ± 0.4 kg/m3 | mass density (298.15 K, 40000 kPa): 1044.4 ± 0.4 kg/m3 | mass density (298.15 K, 45000 kPa): 1046.7 ± 0.4 kg/m3 | mass density (298.15 K, 50000 kPa): 1049 ± 0.4 kg/m3 | mass density (318.15 K, 100 kPa): 1005.9 ± 0.3 kg/m3 | mass density (318.15 K, 10000 kPa): 1012.2 ± 0.3 kg/m3 | mass density (318.15 K, 15000 kPa): 1015.2 ± 0.3 kg/m3 | mass density (318.15 K, 20000 kPa): 1018.1 ± 0.3 kg/m3 | mass density (318.15 K, 25000 kPa): 1020.9 ± 0.3 kg/m3 | mass density (318.15 K, 30000 kPa): 1023.6 ± 0.3 kg/m3 | mass density (318.15 K, 35000 kPa): 1026.4 ± 0.3 kg/m3 | mass density (318.15 K, 40000 kPa): 1028.8 ± 0.4 kg/m3 | mass density (318.15 K, 45000 kPa): 1031.5 ± 0.4 kg/m3 | mass density (318.15 K, 50000 kPa): 1034 ± 0.4 kg/m3 | mass density (348.15 K, 100 kPa): 979.6 ± 0.3 kg/m3 | mass density (348.15 K, 10000 kPa): 987.1 ± 0.3 kg/m3 | mass density (348.15 K, 15000 kPa): 990.5 ± 0.3 kg/m3 | mass density (348.15 K, 20000 kPa): 993.6 ± 0.3 kg/m3 | mass density (348.15 K, 25000 kPa): 996.9 ± 0.3 kg/m3 | mass density (348.15 K, 30000 kPa): 1000.1 ± 0.3 kg/m3 | mass density (348.15 K, 35000 kPa): 1003.1 ± 0.3 kg/m3 | mass density (348.15 K, 40000 kPa): 1006.1 ± 0.3 kg/m3 | mass density (348.15 K, 45000 kPa): 1009 ± 0.3 kg/m3 | mass density (348.15 K, 50000 kPa): 1011.7 ± 0.3 kg/m3

COc1ccccc1 [anisole]
mass density (298.15 K, 100 kPa): 989.2 ± 0.3 kg/m3 | mass density (298.15 K, 10000 kPa): 995.6 ± 0.3 kg/m3 | mass density (298.15 K, 15000 kPa): 998.5 ± 0.3 kg/m3 | mass density (298.15 K, 20000 kPa): 1001.4 ± 0.3 kg/m3 | mass density (298.15 K, 25000 kPa): 1004.1 ± 0.3 kg/m3 | mass density (298.15 K, 30000 kPa): 1006.9 ± 0.3 kg/m3 | mass density (298.15 K, 35000 kPa): 1009.7 ± 0.3 kg/m3 | mass density (298.15 K, 40000 kPa): 1012.5 ± 0.3 kg/m3 | mass density (298.15 K, 45000 kPa): 1015.2 ± 0.3 kg/m3 | mass density (298.15 K, 50000 kPa): 1017.5 ± 0.3 kg/m3 | mass density (318.15 K, 100 kPa): 969.9 ± 0.3 kg/m3 | mass density (318.15 K, 10000 kPa): 977.3 ± 0.3 kg/m3 | mass density (318.15 K, 15000 kPa): 980.4 ± 0.3 kg/m3 | mass density (318.15 K, 20000 kPa): 983.6 ± 0.3 kg/m3 | mass density (318.15 K, 25000 kPa): 986.9 ± 0.3 kg/m3 | mass density (318.15 K, 30000 kPa): 989.8 ± 0.3 kg/m3 | mass density (318.15 K, 35000 kPa): 992.9 ± 0.3 kg/m3 | mass density (318.15 K, 40000 kPa): 995.7 ± 0.3 kg/m3 | mass density (318.15 K, 45000 kPa): 998.6 ± 0.3 kg/m3 | mass density (318.15 K, 50000 kPa): 1001.5 ± 0.3 kg/m3 | mass density (348.15 K, 100 kPa): 941.3 ± 0.3 kg/m3 | mass density (348.15 K, 10000 kPa): 949.8 ± 0.3 kg/m3 | mass density (348.15 K, 15000 kPa): 953.5 ± 0.3 kg/m3 | mass density (348.15 K, 20000 kPa): 957.3 ± 0.3 kg/m3 | mass density (348.15 K, 25000 kPa): 961.1 ± 0.3 kg/m3 | mass density (348.15 K, 30000 kPa): 964.5 ± 0.3 kg/m3 | mass density (348.15 K, 35000 kPa): 967.9 ± 0.3 kg/m3 | mass density (348.15 K, 40000 kPa): 971 ± 0.3 kg/m3 | mass density (348.15 K, 45000 kPa): 974.5 ± 0.3 kg/m3 | mass density (348.15 K, 50000 kPa): 977.8 ± 0.3 kg/m3
